# Test results taken from patent US20260020586A1, “METHOD OF PREPARING GRANULAR FEED ADDITIVE” (CJ CHEILJEDANG CORPORATION, priority 2020, published 2026).
# Assays:
# [1] = Degree of agglomeration visually evaluated after storage; type: physicochemical; details: visual score, good: 0 to poor: 5; after 1 week at 40° C. and 60% relative humidity
# pH of granules = type: physicochemical; details: granules of Table 8 (bubbling tower, different carbon dioxide input times)
smiles,measurement,setting,value
"Cl.NCCCC[C@H](N)C(=O)O [Comparative Example 7, L-Lysine hydrochloride]",Degree of agglomeration (good: 0-poor: 5),[1],1
same,pH,pH of granules,5.8
